Biological target: T1, dehydrogenase/reductase SDR family member 11 (DHRS11) (Homo sapiens, UniProt Q6UWP2)
T1 construct: Homogenous recombinant DHRS11
T1 sequence (Q6UWP2 31-260): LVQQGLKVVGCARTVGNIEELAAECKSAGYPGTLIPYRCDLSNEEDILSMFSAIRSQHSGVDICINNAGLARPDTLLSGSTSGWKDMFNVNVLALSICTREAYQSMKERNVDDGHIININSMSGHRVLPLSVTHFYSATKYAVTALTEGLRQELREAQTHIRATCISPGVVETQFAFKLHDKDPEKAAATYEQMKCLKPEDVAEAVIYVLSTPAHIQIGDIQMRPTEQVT
Assay: reductase activity of recombinant DHRS11, NADPH absorbance at […] nm, isatin substrate
Format: biochemical

IC50: 350 ± 30 nM
SMILES: Cc1c(O)cc(O)c2c(=O)cc(/C=C/c3ccc(O)cc3)oc12 [VI, 5,7-dihydroxy-8-methyl-2-[2-(4-hydroxyphenyl)ethenyl]-4H-1-benzopyran-4-one]
